Assay results as given in article PMC11774580 (Chemosphere, 2024).
pIC50: −log10 of the molar value. Where “and” joins values, the source holds several entries; their conditions need not be identical. Identical values can stand only once. Like-named read-outs stand apart in the source and are kept apart here.

Key:
human OAT4 = target: T1, human OAT4 (Homo sapiens, UniProt Q9NSA0); experiment: hOAT4 substrate; format: in vitro ADME; conditions: for hOAT4 uptake ratio, fold / hOAT4 uptake ratio, % above controls: 1 μM PFAS screen; for Transporter Uptake Ratio OAT4: 1 μM PFAS, threshold ≥ 2-fold; for Effect of probenecid co-treatment on hOAT4-mediated uptake: probenecid 1 mM
T1 sequence (Q9NSA0 1-550): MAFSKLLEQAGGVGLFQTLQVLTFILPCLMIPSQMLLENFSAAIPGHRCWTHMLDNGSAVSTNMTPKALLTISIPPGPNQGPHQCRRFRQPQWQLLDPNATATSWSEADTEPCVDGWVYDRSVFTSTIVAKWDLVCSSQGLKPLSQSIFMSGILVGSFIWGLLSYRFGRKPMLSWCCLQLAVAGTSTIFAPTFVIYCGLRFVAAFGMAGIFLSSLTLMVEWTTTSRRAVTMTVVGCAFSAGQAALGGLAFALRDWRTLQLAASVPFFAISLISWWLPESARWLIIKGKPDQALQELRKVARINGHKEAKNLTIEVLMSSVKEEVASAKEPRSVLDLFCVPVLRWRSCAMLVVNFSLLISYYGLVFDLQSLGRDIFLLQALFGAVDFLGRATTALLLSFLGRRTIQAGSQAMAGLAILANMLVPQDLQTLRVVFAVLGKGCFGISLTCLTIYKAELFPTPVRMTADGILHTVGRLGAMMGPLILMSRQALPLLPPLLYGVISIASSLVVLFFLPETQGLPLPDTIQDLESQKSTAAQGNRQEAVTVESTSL

human OAT1 [1] = target: T2, human OAT1 (Homo sapiens, UniProt Q4U2R8); experiment: hOAT1 substrate; conditions: for Transporter Uptake Ratio OAT1: 1 μM PFAS, threshold ≥ 2-fold; for hOAT-mediated uptake (Fig. 3A, OAT1), fold: follow-up test, without probenecid
T2 sequence (Q4U2R8 1-563): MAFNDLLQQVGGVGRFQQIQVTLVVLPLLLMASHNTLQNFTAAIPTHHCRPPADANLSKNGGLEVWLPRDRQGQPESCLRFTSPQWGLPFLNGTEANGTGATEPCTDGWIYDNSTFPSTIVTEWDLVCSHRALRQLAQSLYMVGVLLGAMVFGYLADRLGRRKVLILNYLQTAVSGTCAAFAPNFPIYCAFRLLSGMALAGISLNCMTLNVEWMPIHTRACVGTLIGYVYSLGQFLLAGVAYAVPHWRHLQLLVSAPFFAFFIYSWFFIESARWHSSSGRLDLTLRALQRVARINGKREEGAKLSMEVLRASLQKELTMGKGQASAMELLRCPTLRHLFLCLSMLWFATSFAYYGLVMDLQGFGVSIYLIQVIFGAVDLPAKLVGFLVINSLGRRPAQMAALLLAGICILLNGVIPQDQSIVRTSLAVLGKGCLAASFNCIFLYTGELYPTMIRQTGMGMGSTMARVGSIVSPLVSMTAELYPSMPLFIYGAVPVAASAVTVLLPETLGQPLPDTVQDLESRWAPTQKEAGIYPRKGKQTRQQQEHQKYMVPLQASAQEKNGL

human OAT3 [2] = target: T3, human OAT3 (Homo sapiens, UniProt Q8TCC7); experiment: hOAT3 substrate; conditions: for hOAT3 uptake ratio, fold higher than mock transfected controls / hOAT3 uptake ratio, % higher than mock transfectants: 1 μM PFAS screen; for Transporter Uptake Ratio OAT3: 1 μM PFAS, threshold ≥ 2-fold; for hOAT3-mediated uptake, fold: follow-up test, without probenecid; for Effect of probenecid cotreatment on hOAT3-mediated uptake: probenecid 1 mM
T3 sequence (Q8TCC7 1-542): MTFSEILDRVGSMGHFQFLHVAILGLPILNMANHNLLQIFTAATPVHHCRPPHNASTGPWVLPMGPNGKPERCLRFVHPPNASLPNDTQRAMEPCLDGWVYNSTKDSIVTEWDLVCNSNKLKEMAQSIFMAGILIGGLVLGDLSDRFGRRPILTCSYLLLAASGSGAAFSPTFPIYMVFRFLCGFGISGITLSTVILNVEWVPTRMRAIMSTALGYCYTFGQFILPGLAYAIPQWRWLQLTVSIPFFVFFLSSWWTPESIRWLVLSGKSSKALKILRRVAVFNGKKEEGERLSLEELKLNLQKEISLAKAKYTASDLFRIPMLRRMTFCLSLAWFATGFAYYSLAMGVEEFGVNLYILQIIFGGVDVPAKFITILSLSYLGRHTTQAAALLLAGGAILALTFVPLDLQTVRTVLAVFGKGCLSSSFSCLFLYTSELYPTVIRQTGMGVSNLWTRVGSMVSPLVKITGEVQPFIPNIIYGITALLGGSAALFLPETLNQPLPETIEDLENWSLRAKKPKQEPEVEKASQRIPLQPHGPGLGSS

human OAT3 [3] = target: T3, human OAT3; experiment: OAT3 inhibition assay
[4] = tested on: MDCKII-LE cell monolayers; experiment: Apparent permeability; conditions: donor pH 7.4, receiver pH 7.4; 2 μM PFAS; 90 min; 0.4% BSA in receiver
human OAT1 [5] = target: T2, human OAT1; experiment: OAT1 inhibition assay
[6] = read-out: IC50 hOAT3 inhibition, probe [3H]-ES 0.1 μM, 30 min pre-incubation

| Compound | hOAT4 uptake ratio, fold (human OAT4) | Transporter Uptake Ratio OAT4 (human OAT4) | hOAT3 uptake ratio, fold higher than mock transfected controls (human OAT3 [2]) | Transporter Uptake Ratio OAT3 (human OAT3 [2]) | hOAT3-mediated uptake, fold (human OAT3 [2]) | Ph 7.4 A-B Papp [4] | OAT4 substrate classification (human OAT4) | Effect of probenecid co-treatment on hOAT4-mediated uptake (human OAT4) | Effect of probenecid cotreatment on hOAT3-mediated uptake (human OAT3 [2]) | further results |
| --- | --- | --- | --- | --- | --- | --- | --- | --- | --- | --- |
| O=S(=O)(O)CCC(F)(F)C(F)(F)C(F)(F)C(F)(F)C(F)(F)C(F)(F)F [6:2FTS, 6:2 fluorotelomer sulfonate] | greater than 2 fold | + (denoted with a “+” to denote a threshold of ≥ 2-fold has been met and considered a substrate for the transporter) | 2.5–12 fold | + (denoted with a “+” to denote a threshold of ≥ 2-fold has been met and considered a substrate for the transporter) | 2.5–15 fold | 0.71 ×10⁻⁶ cm/s | – | – | – | Transporter Uptake Ratio OAT1 (human OAT1 [1]): + (denoted with a “+” to denote a threshold of ≥ 2-fold has been met and considered a substrate for the transporter); hOAT-mediated uptake (Fig. 3A, OAT1), fold (human OAT1 [1]): ~ 4 fold; pIC50 (human OAT3 [3]; [6]): 4.95 |
| O=C(O)C(F)(F)C(F)(F)C(F)(F)F [PFBA, Perfluorobutanoic acid] | – | – | – | – | – | 0.93 ×10⁻⁶ cm/s | – | – | – | hOAT3 substrate classification (human OAT3 [2]): weak substrate; hOAT3 uptake ratio, % higher than mock transfectants (human OAT3 [2]): 30–50%; hOAT3 uptake ratio (human OAT3 [2]; statistically significant, below 2-fold cut-off): 1.5; Some level of inhibition against hOAT3 mediated transport (human OAT3 [3]): the only exceptions; Some level of inhibition against hOAT1 mediated transport (human OAT1 [5]): the only exceptions |
| O=S(=O)(O)C(F)(F)C(F)(F)C(F)(F)C(F)(F)F [PFBS, Perfluorobutane sulfonic acid] | greater than 2 fold | + (denoted with a “+” to denote a threshold of ≥ 2-fold has been met and considered a substrate for the transporter) | 2.5–12 fold | + (denoted with a “+” to denote a threshold of ≥ 2-fold has been met and considered a substrate for the transporter) | 2.5–15 fold | 1.38 ×10⁻⁶ cm/s | strong substrates | effectively inhibited | markedly inhibited | hOAT1 uptake ratio, % higher than controls (human OAT1 [1]; 1 μM PFAS screen): 5–60% |
| O=C(O)C(F)(F)C(F)(F)C(F)(F)C(F)(F)C(F)(F)C(F)(F)C(F)(F)C(F)(F)C(F)(F)F [PFDA, perfluorodecanoic acid] | – | – | – | – | – | 8.44 ×10⁻⁶ cm/s | – | – | – | hOAT3 substrate classification (human OAT3 [2]): weak substrate; hOAT3 uptake ratio, % higher than mock transfectants (human OAT3 [2]): 30–50% |
| O=C(O)C(F)(F)C(F)(F)C(F)(F)C(F)(F)C(F)(F)F [PFHxA, perfluorohexanoic acid] | – | + (denoted with a “+” to denote a threshold of ≥ 2-fold has been met and considered a substrate for the transporter) | 2.5–12 fold | + (denoted with a “+” to denote a threshold of ≥ 2-fold has been met and considered a substrate for the transporter) | 2.5–15 fold | 1.16 ×10⁻⁶ cm/s | strong substrates | effectively inhibited | markedly inhibited | hOAT4 uptake ratio, % above controls (human OAT4): ~ 20%; hOAT1 uptake ratio, fold higher than the control (human OAT1 [1]; 1 μM PFAS screen): ~ 2 fold; Transporter Uptake Ratio OAT1 (human OAT1 [1]): + (denoted with a “+” to denote a threshold of ≥ 2-fold has been met and considered a substrate for the transporter); hOAT-mediated uptake (Fig. 3A, OAT1), fold (human OAT1 [1]): ~ 2 fold; Effect of probenecid co-treatment on hOAT1-mediated uptake (human OAT1 [1]; probenecid 1 mM): markedly reduced |
| O=S(=O)(O)C(F)(F)C(F)(F)C(F)(F)C(F)(F)C(F)(F)C(F)(F)F [PFHxS, perfluorohexane sulfonic acid] | greater than 2 fold | + (denoted with a “+” to denote a threshold of ≥ 2-fold has been met and considered a substrate for the transporter) | 2.5–12 fold | + (denoted with a “+” to denote a threshold of ≥ 2-fold has been met and considered a substrate for the transporter) | 2.5–15 fold | – | strong substrates | not inhibited | markedly inhibited | Fold difference in OAT4 uptake ratio between PFHxS and PFOS (human OAT4; PFHxS versus PFOS): ~ 2.5 fold; pIC50 (human OAT3 [3]): 4.99 |
| O=C(O)C(F)(F)C(F)(F)C(F)(F)C(F)(F)C(F)(F)C(F)(F)C(F)(F)C(F)(F)F [PFNA, perfluorononanoic acid] | greater than 2 fold | + (denoted with a “+” to denote a threshold of ≥ 2-fold has been met and considered a substrate for the transporter) | 2.5–12 fold | + (denoted with a “+” to denote a threshold of ≥ 2-fold has been met and considered a substrate for the transporter) | 2.5–15 fold | 3.77 ×10⁻⁶ cm/s | strong substrates | effectively inhibited | markedly inhibited | pIC50 (human OAT3 [3]; [6]): 5.01 |
| O=C(O)C(F)(F)C(F)(F)C(F)(F)C(F)(F)C(F)(F)C(F)(F)C(F)(F)F [PFOA, perfluorooctanoic acid] | greater than 2 fold | + (denoted with a “+” to denote a threshold of ≥ 2-fold has been met and considered a substrate for the transporter) | 2.5–12 fold | + (denoted with a “+” to denote a threshold of ≥ 2-fold has been met and considered a substrate for the transporter) | 2.5–15 fold | 1.46 ×10⁻⁶ cm/s | strong substrates | effectively inhibited | markedly inhibited | hOAT1 uptake ratio, % higher than controls (human OAT1 [1]; 1 μM PFAS screen): 5–60%; pIC50 (human OAT3 [3]): 5.05; pIC50 (human OAT1 [5]): 3.78 to 4.29 |
| O=S(=O)(O)C(F)(F)C(F)(F)C(F)(F)C(F)(F)C(F)(F)C(F)(F)C(F)(F)C(F)(F)F [PFOS, perfluorooctane sulfonic acid] | – | – | – | – | – | 14 ×10⁻⁶ cm/s and 14.04 ×10⁻⁶ cm/s | relatively weak substrate | – | – | hOAT4 uptake ratio, % above controls (human OAT4): ~ 20%; hOAT3 uptake ratio, % higher than mock transfectants (human OAT3 [2]): 30–50% |
| O=C(O)C(F)(F)C(F)(F)C(F)(F)C(F)(F)F [PFPA, perfluoropentanoic acid] | – | – | 2.5–12 fold | + (denoted with a “+” to denote a threshold of ≥ 2-fold has been met and considered a substrate for the transporter) | 2.5–15 fold | 0.99 ×10⁻⁶ cm/s | – | effectively inhibited | markedly inhibited | – |
| O=C(O)C(F)(F)C(F)(F)C(F)(F)C(F)(F)C(F)(F)C(F)(F)C(F)(F)C(F)(F)C(F)(F)C(F)(F)F [PFUDA, perfluoroundecanoic acid] | – | – | – | – | – | 11.56 ×10⁻⁶ cm/s | – | – | – | – |
